Experimental data taken from patent publication US20230002361A1, “2H-INDAZOLE DERIVATIVES AND THEIR USE IN THE TREATMENT OF DISEASE” (BIOGEN MA INC., priority 2019, published 2023).
Where a name gives a salt, the structure may show the parent alone. Read-outs that look alike come from different tables or passages of the source.

How the values were obtained:
IRAK4 = molecular target: T1, IRAK4 (Homo sapiens, UniProt Q9NWZ3); test: IRAK4 MSD Biochemical Assay (1 mM ATP, 2 h); conditions: room temperature
T1 construct: with 0.1 nM IRAK4, 1.6 μM of biotinylated peptide substrate and 10 μM ATP
T1 sequence (Q9NWZ3 1-460): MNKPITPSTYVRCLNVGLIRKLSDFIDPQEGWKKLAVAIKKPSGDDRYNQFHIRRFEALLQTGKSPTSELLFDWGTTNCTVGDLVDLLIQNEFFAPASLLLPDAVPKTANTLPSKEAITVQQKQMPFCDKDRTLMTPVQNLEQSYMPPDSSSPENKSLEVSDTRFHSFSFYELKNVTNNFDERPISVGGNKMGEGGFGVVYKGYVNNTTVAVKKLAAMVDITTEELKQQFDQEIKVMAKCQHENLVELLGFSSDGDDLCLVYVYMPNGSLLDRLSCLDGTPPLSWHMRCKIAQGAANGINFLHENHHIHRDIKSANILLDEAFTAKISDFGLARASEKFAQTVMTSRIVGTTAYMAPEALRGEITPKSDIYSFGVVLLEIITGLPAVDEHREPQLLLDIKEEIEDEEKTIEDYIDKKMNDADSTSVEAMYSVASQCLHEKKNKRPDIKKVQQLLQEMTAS
How it was run: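 Run with 1 mM ATP and […] for 2 h, then quenched with EDTA, pH 8. The phosphorylated biotinylated peptide was captured on streptavidin plates and detected with anti-phospho-threonine antibody plus Sulfo-Tag secondary by MSD electrochemiluminescence.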

MDR1 (P-gp) = molecular target: T2, MDR1 (P-gp) (Homo sapiens, UniProt P08183); test: MDR1-MDCK assay (efflux ratio); assay type: in vitro ADME; conditions: human, MDCK-MDR1, 1 μM compound, 120 minutes incubation; read-out: MDR1-MDCK Efflux Ratio; (B-A/A-B)
T2 construct: host or cells: MDCK cells
T2 sequence (P08183 whole entry): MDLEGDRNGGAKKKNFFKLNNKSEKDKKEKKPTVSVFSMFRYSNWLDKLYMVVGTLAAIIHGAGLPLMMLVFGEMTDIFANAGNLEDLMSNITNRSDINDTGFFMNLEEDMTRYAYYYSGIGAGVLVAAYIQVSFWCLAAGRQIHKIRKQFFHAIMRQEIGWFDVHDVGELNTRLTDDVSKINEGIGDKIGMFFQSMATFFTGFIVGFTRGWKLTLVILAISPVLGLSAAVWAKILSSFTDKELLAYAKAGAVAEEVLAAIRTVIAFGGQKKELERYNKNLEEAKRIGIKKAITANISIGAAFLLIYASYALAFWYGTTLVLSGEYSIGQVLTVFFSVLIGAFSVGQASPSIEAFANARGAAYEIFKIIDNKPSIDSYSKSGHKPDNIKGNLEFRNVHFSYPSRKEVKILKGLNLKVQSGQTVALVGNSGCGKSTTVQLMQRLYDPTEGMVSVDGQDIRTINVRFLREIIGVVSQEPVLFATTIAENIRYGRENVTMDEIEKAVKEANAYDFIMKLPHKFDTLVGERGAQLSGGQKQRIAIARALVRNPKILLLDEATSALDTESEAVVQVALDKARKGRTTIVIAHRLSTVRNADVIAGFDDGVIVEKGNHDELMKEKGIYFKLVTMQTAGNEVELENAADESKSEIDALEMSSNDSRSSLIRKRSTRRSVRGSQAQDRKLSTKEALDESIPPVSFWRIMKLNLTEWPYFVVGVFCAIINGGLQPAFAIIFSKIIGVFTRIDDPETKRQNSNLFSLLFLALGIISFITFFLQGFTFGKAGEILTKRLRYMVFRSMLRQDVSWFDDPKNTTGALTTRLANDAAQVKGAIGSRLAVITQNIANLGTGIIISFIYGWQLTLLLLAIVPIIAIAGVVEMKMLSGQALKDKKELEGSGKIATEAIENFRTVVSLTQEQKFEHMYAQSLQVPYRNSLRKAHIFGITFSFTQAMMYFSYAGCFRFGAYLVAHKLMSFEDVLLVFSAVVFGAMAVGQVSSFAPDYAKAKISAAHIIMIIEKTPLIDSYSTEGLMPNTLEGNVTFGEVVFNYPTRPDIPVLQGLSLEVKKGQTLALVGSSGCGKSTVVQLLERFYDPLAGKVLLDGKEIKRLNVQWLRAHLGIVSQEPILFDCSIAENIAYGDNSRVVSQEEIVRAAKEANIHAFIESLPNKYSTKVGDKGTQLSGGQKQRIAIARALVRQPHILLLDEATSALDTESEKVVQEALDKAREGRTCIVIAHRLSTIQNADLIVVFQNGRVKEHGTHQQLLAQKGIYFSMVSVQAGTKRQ
How it was run: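 Human MDR1-transfected MDCK monolayers, cultured 7 days on transwell inserts with TEER checked, were dosed with compound at 1 μM in HBSS-HEPES. Transport was measured in both A-B and B-A directions. Efflux ratio came from the directional permeabilities, with mass balance also calculated.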

[1] = read-out: IRAK4 MSD Biochemical Assay (1 mM ATP, 2 h) IC50
[2] = IRAK4 MSD Biochemical Assay (1 mM ATP, 2 h) IC50 (nM)

Row | Compound | IC50 (IRAK4; [1]) | efflux ratio at 120 min, 1 μM (MDR1 (P-gp)) | IC50 (IRAK4; [2])
1 | COc1ncccc1NC(=O)c1cc2cn(CC3CCOC3)nc2nc1OC(C)C (centres unmarked) [Example 78, 6-Isopropoxy-N-(2-methoxypyridin-3-yl)-2-((tetrahydrofuran-3-yl)methyl)-2H-pyrazolo[3,4-b]pyridine-5-carboxamide] | 1.2 nM | 1.4 | 
2 | CC(C)Oc1nc2nn(CC3CCOC3)cc2cc1C(=O)Nc1ccn(C)n1 (centres unmarked) [Example 79, 6-Isopropoxy-N-(1-methyl-1H-pyrazol-3-yl)-2-((tetrahydrofuran-3-yl)methyl)-2H-pyrazolo[3,4-b]pyridine-5-carboxamide] | 10.6 nM | 9.4 | 
3 | CC(C)Oc1nc2nn(CC3CCOC3)cc2cc1C(=O)Nc1ccn(C(F)F)n1 (centres unmarked) [Example 80, N-(1-(difluoromethyl)-1H-pyrazol-3-yl)-6-isopropoxy-2-((tetrahydrofuran-3-yl)methyl)-2H-pyrazolo[3,4-b]pyridine-5-carboxamide] | 6.4 nM | 3.1 | 
4 | CC(C)Oc1nc2nn(CC3CCOC3)cc2cc1C(=O)Nc1cc(F)cn(C)c1=O (centres unmarked) [Example 81, N-(5-fluoro-1-methyl-2-oxo-1,2-dihydroxypyridin-3-yl)-6-isopropxy-2-((tetrahydrofuran-3-yl)methyl)-2H-pyrazolo[3,4-b]pyridine-5-carboxamide] | 9.9 nM | 5.9 | 
5 | CC(C)Oc1nc2nn(C3CCOCC3)cc2cc1C(=O)Nc1cnn2cccnc12 [Example 82, 6-Isopropoxy-N-(pyrazolo[1,5-a]pyrimidin-3-yl)-2-(tetrahydro-2H-pyran-4-yl)-2H-pyrazolo[3,4-b]pyridine-5-carboxamide] | 1.2 nM | 2.6 | 
6 | Cn1cccc(NC(=O)c2cc3cn(C45COC(C)(C4)C5)nc3cc2OC2CCC2)c1=O [Example 83, 6-Cyclobutoxy-N-(1-methyl-2-oxo-1,2-dihydropyridin-3-yl)-2-(1-methyl-2-oxabicyclo[2.1.1]hexan-4-yl)-2H-indazole-5-carboxamide trifluoroacetate] | 1.4 nM | 1.2 | 
7 | CC12CC(n3cc4cc(C(=O)Nc5cccn(C(F)F)c5=O)c(OC5CCC5)cc4n3)(CO1)C2 [Example 84, 6-Cyclobutoxy-N-(1-(difluoromethyl)-2-oxo-1,2-dihydropyridin-3-yl)-2-(1-methyl-2-oxabicyclo[2.1.1]hexan-4-yl)-2H-indazole-5-carboxamide trifluoroacetate] | 0.5 nM | 0.9 | 
8 | CCOc1cc2nn(C34COC(C)(C3)C4)cc2cc1C(=O)Nc1cccn(C)c1=O [Example 86, 6-Ethoxy-N-(1-methyl-2-oxo-1,2-dihydropyridin-3-yl)-2-(1-methyl-2-oxabicyclo[2.1.1]hexan-4-yl)-2H-indazole-5-carboxamide tfifluoroacetate] |  | 1.8 | 3.7 nM
9 | COc1cc2nn(C34COC(C)(C3)C4)cc2cc1C(=O)Nc1cccc(C(F)F)n1 [Example 87, N-(6-(difluoromethyl)pyridin-2-yl)-6-methoxy-2-(1-methyl-2-oxabicyclo[2.1.1]hexan-4-yl)-2H-indazole-5-carboxamide trifluoroacetate] | 2.4 nM | 0.7 | 
10 | CC(C)Oc1cc2nn(C34COC(C)(C3)C4)cc2cc1C(=O)Nc1cccc(C(F)F)n1 [Example 88, N-(6-(difluoromethyl)pyridin-2-yl)-6-isopropoxy-2-(1-methyl-2-oxabicyclo[2.1.1]hexan-4-yl)-2H-indazole-5-carboxamide trifluoroacetate] | 0.1 nM | 0.5 | 
11 | COc1cccc(NC(=O)c2cc3cn(C45COC(C)(C4)C5)nc3cc2OC(C)C)n1 [Example 89, 6-Isopropoxy-N-(6-methoxypyridin-2-yl)-2-(1-methyl-2-oxabicyclo[2.1.1]hexan-4-yl)-2H-indazole-5-carboxamide trifluoroacetae] | 1 nM | 0.6 | 
12 | COc1ncccc1NC(=O)c1cc2cn(C34COC(C)(C3)C4)nc2cc1OC(C)C [Example 90, 6-Isopropoxy-N-(2-methoxypyridin-3-yl)-2-(1-methyl-2-oxabicyclo[2.1.1]hexan-4-yl)-2H-indazole-5-carboxamide trifluoroacetate] | 0.6 nM | 0.7 | 
13 | CC(C)Oc1cc2nn(C34COC(C)(C3)C4)cc2cc1C(=O)Nc1cccn(C(F)F)c1=O [Example 91, N-(1-(difluoromethyl)-2-oxo-1,2-dihydropyridin-3-yl)-6-isopropoxy-2-(1-methyl-2-oxabicyclo[2.1.]hexan-4-yl)-2H-indazole-5-carboxamide tfifluoroacetate] |  | 0.8 | 0.3 nM
14 | CC(C)Oc1cc2nn(C34COC(C)(C3)C4)cc2cc1C(=O)Nc1ccn(C)n1 [Example 92, 6-Isopropoxy-N-(1-methyl-1H-pyrazol-3-yl)-2-(1-methyl-2-oxabicyclo[2.1.1]hexan-4-yl)-2H-indazole-5-carboxamide] | 4.8 nM | 1.6 | 
15 | CC(C)Oc1cc2nn(C34COC(C)(C3)C4)cc2cc1C(=O)Nc1cnn2cccnc12 [Example 93, 6-Isopropoxy-2-(1-methyl-2-oxabicyclo[2.1.1]hexan-4-yl)-N-(pyrazolo[1,5-a]pyrimidin-3-yl)-2H-indazole-5-carboxamide] | 0.4 nM | 1.4 | 
16 | Cc1cnc2c(NC(=O)c3cc4cn(C56COC(C)(C5)C6)nc4cc3OC(C)C)cnn2c1 [Example 94, 6-Isopropoxy-2-(1-methyl-2-oxabicyclo[2.1.1]hexan-4-yl)-N-(6-methylpyrazolo[1,5-a]pyrimidin-3-yl)-2H-indazole-5-carboxamide] | 1.3 nM | 1.4 | 
17 | CC(C)Oc1cc2nn(C34COC(C)(C3)C4)cc2cc1C(=O)Nc1cnn2cc(Cl)cnc12 [Example 95, N-(6-chloropyrazolo[1,5-a]pyrimidin-3-yl)-6-isopropoxy-2-(1-methyl-2-oxabicyclo[2.1.1]hexan-4-yl)-2H-indazole-5-carboxamide] | 0.3 nM | 0.9 | 
18 | CC(C)Oc1cc2nn(C34COC(C)(C3)C4)cc2cc1C(=O)Nc1cnn2cc(F)cnc12 [Example 96, N-(6-fluoropyrazolo[1,5-a]pyrimidine-3-yl)-6-isopropoxy-2-(1-methyl-2-oxabicyclo[2.1.1]hexan-4-yl)-2H-indazole-5-carboxamide trifluoroacetate] | 1.4 nM | 1.6 | 
19 | CC(C)Oc1cc2nn(C34CCC(C)(C3)OC4)cc2cc1C(=O)Nc1cccc(C(F)F)n1 (centres unmarked) [Example 97, N-(6-(difluoromethyl)pyridin-2-yl)-6-isopropoxy-2-(1-methyl-2-oxabicyclo[2.2.1]heptan-4-yl)-2H-indazole-5-carboxamide] | 0.2 nM | 1.1 | 
20 | CC(C)Oc1cc2nn(C34CCC(C)(C3)OC4)cc2cc1C(=O)Nc1cnn2cccnc12 (centres unmarked) [Example 98, 6-Isopropoxy-2-(1-methyl-2-oxabicyclo[2.2.1]heptan-4-yl)-N-(pyrazolo[1,5-a]pyrimidin-3-yl)-2H-indazole-5-carboxamide] | 0.5 nM | 1 | 
21 | Cc1cnc2c(NC(=O)c3cc4cn(C56CCC(C)(C5)OC6)nc4cc3OC(C)C)cnn2c1 (centres unmarked) [Example 99, 6-Isopropoxy-2-(1-methyl-2-oxabicyclo[2.2.1]heptan-4-yl)-N-(6-methylpyrazolo[1,5-a]pyrimidin-3-yl)-2H-indazole-5-carboxamide trifluoroacetate] | 0.3 nM | 1.2 | 
22 | CC(C)Oc1cc2nn(C34CCC(C)(C3)OC4)cc2cc1C(=O)Nc1ccn(C)n1 (centres unmarked) [Example 101, 6-Isopropoxy-N-(1-methyl-1H-pyrazol-3-yl)-2-(1-methyl-2-oxabicyclo[2.2.1]heptan-4-yl)-2H-indazole-5-carboxamide] | 4.1 nM | 1.5 | 
23 | CC(C)Oc1cc2nn(C34CCC(C)(CC3)OC4)cc2cc1C(=O)Nc1ccn(C)n1 [Example 103, 6-Isopropoxy-N-(1-methyl-1H-pyrazol-3-yl)-2-(1-methyl-2-oxabicyclo[2.2.2]octan-4-yl)-2H-indazole-5-carboxamide] | 1.9 nM | 0.9 | 
24 | CC(C)Oc1c(C(=O)Nc2cccc(C(F)F)n2)cc2cn(C3CCOCC3)nc2c1Cl [Example 124, 7-Chloro-N-(6-(difluoromethyl)pyridin-2-yl)-6-isopropoxy-2-(tetrahydro-2H-pyran-4-yl)-2H-indazole-5-carboxamide Trifluoroacetate] | 20 nM | 1.1 | 
25 | CC12CCC(n3cc4cc(C(=O)Nc5ccn(C(F)F)n5)c(OC5CCC5)cc4n3)(CC1)CO2 [Example 139, 6-cyclobutoxy-N-(1-(difluoromethyl)-1H-pyrazol-3-yl)-2-(1-methyl-2-oxabicyclo[2.2.2]octan-4-yl)-2H-indazole-5-carboxamide] | 0.9 nM | 0.8 | 
